Source: paper PMC9145754, “Novel Soloxolone Amides as Potent Anti-Glioblastoma Candidates: Design, Synthesis, In Silico Analysis and Biological Activities In Vitro and In Vivo” (Pharmaceuticals, 2022)
Read-outs that look alike come from different tables or passages of the source.

Tests used:
HeLa cells = assay: MTT cytotoxicity assay, HeLa; type: cell-based; settings: Homo sapiens, 24 h, read-out: IC50, Cervix, HeLa
Method: (§1) In the first step of the study, we analyzed the cytotoxicity of novel soloxolone derivatives 1–12 in a panel of tumor cells, including human cervical carcinoma HeLa, human duodenal carcinoma HuTu-80 and murine melanoma B16 cells, as well as human non-transformed hFF3 foreskin fibroblasts. The cells were treated with derivatives for 24 h and cell viability was evaluated by 3-(4,5-dimethylthiazol-2-yl)-2,5-diphenyltetrazolium bromide (MTT) assay. SM was used as the reference compound.
(§2) The cells in the exponential growth phase were seeded in quadruplicate in 96-well plates at a density of 1 × 10^4 cells/well for HeLa, U87, U118, KELLY and Neuro2a cells; 1.5 × 10^4 cells/well for HuTu-80 cells; 2 × 10^4 cells/well for B16 cells; and 7 × 10^3 cells/well for hFF3 fibroblasts. Cells were incubated under standard conditions overnight followed by their treatment with the investigated compounds (1–20 µM) for 24 h. Then, 10 µL of MTT solution was added to the cells to a final concentration of 0.5 mg/mL and plates were placed under standard conditions for 3 h followed by an aspiration of MTT-containing medium and a dissolution of formazan crystals with 100 µL of DMSO. The absorbance of each well was read at test and reference wavelengths of 570 and 620 nm, respectively, on a Multiscan RC plate reader (Thermo LabSystems, Helsinki, Finland).

HuTu-80 cells = assay: MTT cytotoxicity assay, HuTu-80; type: cell-based; settings: Homo sapiens, HuTu80, 24 h, read-out: IC50, Duodenum, HuTu-80
Method: as §1, §2

B16 cells = assay: MTT cytotoxicity assay, B16; type: cell-based, murine; settings: Mus musculus, 24 h, read-out: IC50, Melanoma, B16
Method: as §1, §2

[1] = tested on: hFF3 foreskin fibroblasts; assay: MTT cytotoxicity assay, hFF3 fibroblasts; type: cell-based, human
Method: as §1, §2

U87 cells = assay: MTT cytotoxicity assay, U87; type: cell-based; settings: Homo sapiens, U-87 MG, 24 h, read-out: IC50, Glioblastoma, U87
Method: (§3) To evaluate the antitumor activity of the synthesized soloxolone amides in brain tumor cells, the cytotoxicity of compounds 4–12, predicted as BBB-permeable (Figure 3), was further analyzed in human glioblastoma U87 and U118 cells, as well as human neuroblastoma KELLY and murine neuroblastoma Neuro2a cells.
as §2

U118 cells = assay: MTT cytotoxicity assay, U118; type: cell-based; settings: Homo sapiens, 24 h, read-out: IC50, Glioblastoma, U118
Method: as §3, §2

KELLY cells = assay: MTT cytotoxicity assay, KELLY; type: cell-based; settings: Homo sapiens, 24 h, read-out: IC50, Neuroblastoma, KELLY
Method: as §3, §2

Neuro2a cells = assay: MTT cytotoxicity assay, Neuro2a; type: cell-based, murine; settings: Mus musculus, N2a, 24 h, read-out: IC50, Neuroblastoma, Neuro2a
Method: as §3, §2

panel of tumor cells = assay: MTT cytotoxicity, values averaged over the cell panel; type: cell-based
Method: as §1, §2

brain tumor cells = assay: MTT cytotoxicity, values summarised over brain tumor cells; type: cell-based; settings: U87, U118, KELLY, Neuro2a; MTT 24 h; read-out: IC50 (median), brain tumor cells
Method: as §3, §2

[2] = aryl-containing amides versus SM, tumor cells of Table 1, MTT 24 h, read-out: average IC50 against tumor cells
[3] = average over Table 1 cell lines (worded 'in a panel of tumor cells'), MTT 24 h, read-out: average IC50

Row | Structure (SMILES) | IC50 (HeLa cells) | IC50 (HuTu-80 cells) | IC50 (B16 cells) | IC50 ([1]; Homo sapiens, HFF-3, 24 h) | IC50 (U87 cells) | IC50 (U118 cells) | IC50 (KELLY cells) | IC50 (Neuro2a cells) | IC50 (panel of tumor cells; [2]) | IC50 (panel of tumor cells; [3]) | IC50 (panel of tumor cells; conclusions, soloxolone amides versus SM, read-out: average IC50 in a panel of tumor cell lines) | IC50 (brain tumor cells) | melting point | IC50 ([1]; 24 h)
1 | COC(=O)[C@@]1(C)CC[C@]2(C)CC[C@]3(C)[C@H](C(=O)C=C4[C@@]5(C)C=C(C#N)C(=O)C(C)(C)C5CC[C@]43C)[C@@H]2C1 (stereo partly shown) [SM, soloxolone methyl, reference compound] | 1.3 ± 0.1 µM | 1.5 ± 0.1 µM | 1.6 ± 0.1 µM | 4 ± 0.4 µM | 1.8 ± 0.1 µM | 1.9 ± 0.1 µM | 1.6 ± 0.1 µM | 1.4 ± 0.1 µM | 1.5 µM | 2.1 µM | 1.6 µM | 1.4 µM | – | –
2 | CC1(C)C(=O)C(C#N)=C[C@]2(C)C3=CC(=O)[C@@H]4[C@@H]5C[C@@](C)(C(=O)O)CC[C@]5(C)CC[C@@]4(C)[C@]3(C)CCC12 (stereo partly shown) [compound 1, 2-Cyano-3,12-dioxo-18βH-olean-9(11),1(2)-dien-30-oic acid] | 9.9 ± 0.7 µM | 2.5 ± 0.3 µM | 4.2 ± 0.3 µM | 16 ± 1.9 µM | – | – | – | – | – | 8.2 µM | – | – | – | –
3 | CC1(C)C(=O)C(C#N)=C[C@]2(C)C3=CC(=O)[C@@H]4[C@@H]5C[C@@](C)(C(=O)NCCO)CC[C@]5(C)CC[C@@]4(C)[C@]3(C)CCC12 (stereo partly shown) [compound 2, N-(2′-Hydroxyethyl)-2-cyano-3,12-dioxo-18βH-olean-9(11),1(2)-dien-30-amide] | 1.5 ± 0.1 µM | 1.4 ± 0.1 µM | 3.3 ± 0.2 µM | 1.2 ± 0.1 µM | – | – | – | – | – | 1.9 µM | – | – | 152.7 °C (dec.) | –
4 | CC1(C)C(=O)C(C#N)=C[C@]2(C)C3=CC(=O)[C@@H]4[C@@H]5C[C@@](C)(C(=O)NCCCO)CC[C@]5(C)CC[C@@]4(C)[C@]3(C)CCC12 (stereo partly shown) [compound 3, N-(3′-Hydroxypropyl)-2-cyano-3,12-dioxo-18βH-olean-9(11),1(2)-dien-30-amide] | 3.5 ± 0.2 µM | 1.7 ± 0.2 µM | 1.4 ± 0.1 µM | 6.8 ± 1.3 µM | – | – | – | – | – | 3.4 µM | – | – | 150.8 °C (dec.) | –
5 | CC1(C)C(=O)C(C#N)=C[C@]2(C)C3=CC(=O)[C@@H]4[C@@H]5C[C@@](C)(C(=O)NCCCCCO)CC[C@]5(C)CC[C@@]4(C)[C@]3(C)CCC12 (stereo partly shown) [compound 4, N-(5′-Hydroxypentyl)-2-cyano-3,12-dioxo-18βH-olean-9(11),1(2)-dien-30-amide] | 2.3 ± 0.4 µM | 1.3 ± 0.1 µM | 1.5 ± 0.1 µM | 3.6 ± 0.3 µM | 2 ± 0.1 µM | 3.1 ± 0.5 µM | 1.5 ± 0.1 µM | 1.9 ± 0.2 µM | – | 2.2 µM | – | – | 115.7 °C (dec.) | –
6 | COCCNC(=O)[C@@]1(C)CC[C@]2(C)CC[C@]3(C)[C@H](C(=O)C=C4[C@@]5(C)C=C(C#N)C(=O)C(C)(C)C5CC[C@]43C)[C@@H]2C1 (stereo partly shown) [compound 5, N-(2′-Methoxyethyl)-2-cyano-3,12-dioxo-18βH-olean-9(11),1(2)-dien-30-amide] | 1.5 ± 0.2 µM | 2.3 ± 0.2 µM | 1.6 ± 0.1 µM | 12.8 µM | 5.5 ± 1.1 µM | 7 ± 0.7 µM | 1.6 ± 0.1 µM | 2.7 ± 0.3 µM | – | – | – | – | 115.9 °C (dec.) | 12.9 ± 0.8 µM
7 | CN(C)CCNC(=O)[C@@]1(C)CC[C@]2(C)CC[C@]3(C)[C@H](C(=O)C=C4[C@@]5(C)C=C(C#N)C(=O)C(C)(C)C5CC[C@]43C)[C@@H]2C1 (stereo partly shown) [compound 6, N-(2′-(Dimethylamino)ethyl)-2-Cyano-3,12-dioxo-18βH-olean-9(11),1(2)-dien-30-amide] | 2.6 ± 0.5 µM | 2.1 ± 0.5 µM | 3.3 ± 0.5 µM | 4.1 ± 0.3 µM | 4.6 ± 0.4 µM | 3.8 ± 0.5 µM | 1.6 ± 0.1 µM | 2.8 ± 0.4 µM | – | 3 µM | – | – | – | –
8 | CN(C)CCCNC(=O)[C@@]1(C)CC[C@]2(C)CC[C@]3(C)[C@H](C(=O)C=C4[C@@]5(C)C=C(C#N)C(=O)C(C)(C)C5CC[C@]43C)[C@@H]2C1 (stereo partly shown) [compound 7, N-(3′-(Dimethylamino)propyl)-2-cyano-3,12-dioxo-18βH-olean-9(11),1(2)-dien-30-amide] | 4.9 ± 0.8 µM | 2 ± 0.7 µM | 3.3 ± 0.8 µM | 7.7 ± 1.1 µM | 5.3 ± 0.7 µM | 5.2 ± 1.3 µM | 1.8 ± 0.3 µM | 3.7 ± 0.6 µM | – | 4.5 µM | – | – | – | –
9 | CC1(C)C(=O)C(C#N)=C[C@]2(C)C3=CC(=O)[C@@H]4[C@@H]5C[C@@](C)(C(=O)Nc6ccc(Br)cc6)CC[C@]5(C)CC[C@@]4(C)[C@]3(C)CCC12 (stereo partly shown) [compound 8, N-(4′-Bromophenyl)-2-Cyano-3,12-dioxo-18βH-olean-9(11),1(2)-dien-30-amide] | 1.5 ± 0.1 µM | 1.4 ± 0.1 µM | 1.9 ± 0.1 µM | 1.8 ± 0.1 µM | 1.7 ± 0.1 µM | 2 ± 0.1 µM | 1.4 ± 0.1 µM | 1.6 ± 0.1 µM | 1.5 to 1.8 µM | – | – | – | 283 °C (dec.) | –
10 | Cc1ccc(NC(=O)[C@@]2(C)CC[C@]3(C)CC[C@]4(C)[C@H](C(=O)C=C5[C@@]6(C)C=C(C#N)C(=O)C(C)(C)C6CC[C@]54C)[C@@H]3C2)cc1 (stereo partly shown) [compound 9, N-p-Tolyl-2-cyano-3,12-dioxo-18βH-olean-9(11),1(2)-dien-30-amide] | 1.6 ± 0.1 µM | 1.5 ± 0.1 µM | 2.1 ± 0.3 µM | 3.6 ± 0.3 µM | 2 ± 0.2 µM | 1.9 ± 0.2 µM | 1.4 ± 0.1 µM | 1.6 ± 0.1 µM | 1.5 to 1.8 µM | – | – | – | – | –
11 | CC1(C)C(=O)C(C#N)=C[C@]2(C)C3=CC(=O)[C@@H]4[C@@H]5C[C@@](C)(C(=O)Nc6cccnc6)CC[C@]5(C)CC[C@@]4(C)[C@]3(C)CCC12 (stereo partly shown) [compound 10, N-(Pyridin-3-yl)-2-Cyano-3,12-dioxo-18βH-olean-9(11),1(2)-dien-30-amide] | 1.8 ± 0.1 µM | 1.5 ± 0.2 µM | 1.7 ± 0.1 µM | 1.6 ± 0.1 µM | 2.5 ± 0.2 µM | 2.1 ± 0.2 µM | 1.5 ± 0.1 µM | 1.4 ± 0.1 µM | 1.5 to 1.8 µM | – | – | – | 250 °C | –
12 | CC(C)(C)c1cc(CCCNC(=O)[C@@]2(C)CC[C@]3(C)CC[C@]4(C)[C@H](C(=O)C=C5[C@@]6(C)C=C(C#N)C(=O)C(C)(C)C6CC[C@]54C)[C@@H]3C2)cc(C(C)(C)C)c1O (stereo partly shown) [compound 11, N-(3′-(3′’,5′’-di-tert-butyl-4′’-hydroxyphenyl)propyl)-2-Cyano-3,12-dioxo-18βH-olean-9(11),1(2)-dien-30-amide] | 2.5 ± 0.1 µM | 1.5 ± 0.1 µM | 1.4 ± 0.1 µM | 1.3 ± 0.2 µM | 1.5 ± 0.1 µM | 1.9 ± 0.1 µM | 1.8 ± 0.2 µM | 1.4 ± 0.1 µM | 1.5 to 1.8 µM | – | – | – | 139 °C (dec.) | –
